In publication PMC6199744, “Development of Chemical Proteomics for the Folateome and Analysis of the Kinetoplastid Folateome” (ACS Infectious Diseases, 2018):

Test system: L. major lysate proteins
Test: Multitargeted bead mixture chemoproteomics, single concentration competition, proteome-wide
Format: binding

For `Nc1nc2c(c(=O)[nH]1)N(C=O)C(CNc1ccc(C(=O)N[C@@H](CCC(=O)O)C(=O)O)cc1)CN2` (stereo partly drawn) [LEU, leucovorin], the “fold change relative to vehicle control” value (protein LMJF.35.1220, SHORT CHAIN DEHYDROGENASE, PUTATIVE) was 1.29, the “fold change relative to vehicle control” value (protein LMJF.35.1380, MITOCHONDRIAL PROCESSING PEPTIDASE, BETA SUBUNIT, PUTATIVE) was 0.96 and the “fold change vs vehicle control” value (protein LMJF.35.1830 HY[…], CONSERVED) was 1.03. The “fold change vs vehicle control” value (protein LMJF.35.3340 6-phosphogluconate dehydrogenase) was 1.03, the fold change (protein LMJF.35.3700 GIM5A PROTEIN, PUTATIVE,GLYCOSOMAL MEMBRANE PROTEIN, vehicle control = 1) was 0.87 and the “fold change vs vehicle control” value (protein LMJF.35.3760 60S RIBOSOMAL PROTEIN L27A/L29, PUTATIVE) was 1.05. The “fold change relative to vehicle control” value (protein LMJF.35.3840, […] 2 SUBUNIT, PUTATIVE) was 1.16, the “fold change vs vehicle control” value (protein LMJF.35.3860 T-COMPLEX PROTEIN 1, ETA SUBUNIT, PUTATIVE) was 0.98 and the fold change (protein LMJF.35.4420 MITOCHONDRIAL PHOSPHATE TRANSPORTER, PUTATIVE, vehicle control = 1) was 1. The “fold change relative to vehicle control” value (protein LMJF.35.4880, HYPOTHETICAL PROTEIN, CONSERVED (TPR repeat, putative)) was 1.3, the “fold change relative to vehicle control” value (protein LMJF.35.5330, ISOPENTENYL-D[…]-ISOMERASE, PUTATIVE) was 1.06 and the “fold change relative to vehicle control” value (protein LMJF.36.0070, STRESS-INDUCIBLE PROTEIN STI1 HOMOLOG) was 1.81. The fold change (protein LMJF.36.0480 HYPOTHETICAL PROTEIN, CONSERVED, vehicle control = 1) was 1, the “fold change vs vehicle control” value (protein LMJF.36.0620 HYPOTHETICAL PROTEIN, CONSERVED) was 0.9 and the “fold change vs vehicle control” value (protein LMJF.36.0930 40S RIBOSOMAL PROTEIN S18, PUTATIVE) was 1.19. For the same molecule, the “fold change vs vehicle control” value (protein LMJF.36.0990 40S RIBOSOMAL PROTEIN S10, PUTATIVE) was 0.91, the fold change (protein LMJF.36.1140 SHORT CHAIN 3-HYDROXYACYL-COA DEHYDROGENASE, PUTATIVE, vehicle control = 1) was 0.94 and the “fold change relative to vehicle control” value (protein LMJF.36.1260, FRUCTOSE-1,6-BI[…]) was 1.16. For the same molecule, the fold change (protein LMJF.36.1340 N-ACETYLTRANSFERASE SUBUNIT NAT1, PUTATIVE, vehicle control = 1) was 0.92, the “fold change vs vehicle control” value (protein LMJF.36.1650 PROTEASOME BETA 5 SUBUNIT, PUTATIVE) was 0.98 and the “fold change relative to vehicle control” value (protein LMJF.36.2380, STEROL 24-C-METHYLTRANSFERASE, PUTATIVE) was 1.04. For the same molecule, the “fold change vs vehicle control” value (protein LMJF.36.2950 SUCCINYL-COA LIGASE GDP-FORMING] BETA-CHAIN, PUTATIVE) was 0.96, the “fold change vs vehicle control” value (protein LMJF.36.3210 14-3-3 PROTEIN-LIKE PROTEIN) was 1.08 and the “fold change vs vehicle control” value (protein LMJF.36.3410 SHORT CHAIN DEHYDROGENASE-LIKE PROTEIN) was 0.97. It also gave a fold change (protein LMJF.36.3460 HYPOTHETICAL PROTEIN, CONSERVED (NIPSNAP, putative), vehicle control = 1) of 0.75, a fold change (protein LMJF.36.3580 HYPOTHETICAL PROTEIN, CONSERVED (Protein of unknown function (DUF2009), putative), vehicle control = 1) of 0.85 and a fold change (protein LMJF.36.3750 40S RIBOSOMAL PROTEIN S27-1, PUTATIVE, vehicle control = 1) of 0.85. For the same molecule, the “fold change vs vehicle control” value (protein LMJF.36.3910 S-ADENOSYLHOMOCYSTEINE HYDROLASE) was 0.94, the “fold change vs vehicle control” value (protein LMJF.36.5010 40S RIBOSOMAL PROTEIN SA, PUTATIVE) was 1.03 and the “fold change vs vehicle control” value (protein LMJF.36.5130 HY[…], CONSERVED) was 1.01. For the same molecule, the “fold change vs vehicle control” value (protein LMJF.36.5150 HYPOTHETICAL PROTEIN, CONSERVED) was 0.93, the “fold change relative to vehicle control” value (protein LMJF.36.5380, NADH DEHYDROGENASE, PUTATIVE) was 1.07 and the “fold change vs vehicle control” value (protein LMJF.36.5390 PHOSPHORIBOSYLPYROPHOSPHATE SYNTHETASE, PUTATIVE) was 0.99. The “fold change vs vehicle control” value (protein LMJF.36.5620 ISOLEUCYL-TRNA SYNTHETASE, PUTATIVE) was 0.94, the fold change (protein LMJF.36.6430 PROTEIN TRANSPORT PROTEIN SEC23-LIKE PROTEIN, vehicle control = 1) was 1.17 and the “fold change vs vehicle control” value (protein LMJF.36.6760 HYPOTHETICAL PROTEIN, CONSERVED) was 0.87. The “fold change relative to vehicle control” value (protein LMJF.[…], MIT[…] BETA SUBUNIT, PUTATIVE) was 1.14, the “fold change relative to vehicle control” value (protein LMJF.[…], POLY(A) EXPORT PROTEIN, PUTATIVE) was 1.24 and the fold change (vs vehicle control, protein LINJ.20.0630 CYTIDINE TRIPHOSPHATE SYNTHASE, PUTATIVE,CTP SYNTHASE, PUTATIVE) was 0.91. It also gave a fold change (vs vehicle control, protein LINJ.20.1390 COATOMER BETA SUBUNIT, PUTATIVE) of 0.96, a fold change (vs vehicle control, protein LMJF.05.1140 VACUOLAR ATPASE SUBUNIT-LIKE PROTEIN) of 0.75 and a fold change (vs vehicle control, protein LMJF.07.1090 DELTA-5 FATTY ACID DESATURASE) of 0.88. For the same molecule, the fold change (vs vehicle control, protein LMJF.09.0220 HYPOTHETICAL PROTEIN, CONSERVED) was 0.73, the fold change (vs vehicle control, protein LMJF.11.1030 HYPOTHETICAL PROTEIN, CONSERVED) was 0.86 and the fold change (vs vehicle control, protein LMJF.14.0640 FATTY ACID ELONGASE, PUTATIVE) was 0.71. It also gave a fold change (vs vehicle control, protein LMJF.14.0705 FATTY ACID ELONGASE, PUTATIVE) of 0.92, a fold change (vs vehicle control, protein LMJF.14.1120 KINESIN K39, PUTATIVE) of 0.96 and a fold change (vs vehicle control, protein LMJF.16.1610 PROHIBITIN) of 1.01. For the same molecule, the fold change (vs vehicle control, protein LMJF.17.0010 HYPOTHETICAL PROTEIN, CONSERVED) was 0.94, the fold change (vs vehicle control, protein LMJF.18.1130 RAS-RELATED PROTEIN RAB-5, PUTATIVE) was 0.82 and the fold change (vs vehicle control, protein LMJF.19.1420 CYSTEINE PEPTIDASE A (CPA)) was 0.84. For the same molecule, the fold change (vs vehicle control, protein LMJF.21.0280 HY[…], CONSERVED) was 0.97, the fold change (vs vehicle control, protein LMJF.22.1560 40S RIBOSOMAL PROTEIN L14, PUTATIVE) was 0.93 and the fold change (vs vehicle control, protein LMJF.23.1220 T-COMPLEX PROTEIN 1, GAMMA SUBUNIT, PUTATIVE) was 0.94. For the same molecule, the fold change (vs vehicle control, protein LMJF.24.0370 ASPARTATE AMINOTRANSFERASE, PUTATIVE) was 0.99, the fold change (vs vehicle control, protein LMJF.25.1770 ENOYL-COA REDUCTASE, PUTATIVE) was 0.97 and the fold change (vs vehicle control, protein LMJF.26.0170 60S RIBOSOMAL PROTEIN L7, PUTATIVE) was 0.85. It also gave a fold change (vs vehicle control, protein LMJF.26.1550 TRI[…] ALPHA SUBUNIT, MIT[…]-LIKE PROTEIN) of 1.09, a fold change (vs vehicle control, protein LMJF.26.1610 PROLINE OXIDASE, MITOCHONDRIAL PRECURSOR-LIKE PROTEIN) of 0.79 and a fold change (vs vehicle control, protein LMJF.28.1950 X-PRO, DIPEPTIDYL-PEPTIDASE,SERINE PEPTIDASE, CLAN SC, FAMILY S15, PUTATIVE) of 0.96. It also gave a fold change (vs vehicle control, protein LMJF.31.1070 BIOTIN/LIPOATE PROTEIN LIGASE-LIKE PROTEIN) of 0.88, a fold change (vs vehicle control, protein LMJF.32.1370 HY[…], CONSERVED) of 0.92 and a fold change (vs vehicle control, protein LMJF.34.0490 IMPORTIN BETA-1 SUBUNIT, PUTATIVE) of 1.14. It also gave a fold change (vs vehicle control, protein LMJF.34.4060 UBIQUITIN HYDROLASE, PUTATIVE,CYSTEINE PEPTIDASE, CLAN CA, FAMILY C19, PUTATIVE) of 0.88, a fold change (vs vehicle control, protein LMJF.36.1600 PROTEASOME ALPHA 1 SUBUNIT, PUTATIVE) of 0.98 and a fold change (vs vehicle control, protein LMJF.[…] RIBOSOMAL PROTEIN S7, PUTATIVE) of 0.99.
